Measurements: patent US8623851B2 (Mylan Specialty L.P., priority 2001, dated 2014)
Where two headings read alike, the source gives them in different places.

What was measured:
[1] = Decomposition kinetics (stability) of formoterol in aqueous solution; type: physicochemical
Excerpt: In the embodiments herein, the compositions have a pH of about 2.0 to about 8.0. The particular pH of a given composition for long term storage provided herein may be determined empirically using standard stability assays well known to those of skill in the art (see, e.g., the Examples). […] In certain of the above embodiments, the compositions are formulated at a pH of about 4, 4.4 or 4.6 up to about 5.5, 5.7 or 6. In other embodiments, the pH is about 5.0.
In other of the above embodiments, the compositions further contain a buffer, including, but not limited to, citric acid/phosphate, acetate, barbital, borate, Britton-Robinson, cacodylate, citrate, collidine, formate, maleate, Mcilvaine, phosphate, Prideaux-Ward, succinate, citrate-phosphate-borate (Teorell-Stanhagen), veronal acetate, MES (2-(N-morpholino)ethanesulfonic acid), BIS-TRIS (bis(2-hydroxyethyl)imino-tris-(hydroxymethyl)methane), ADA (N-(2-acetamido)-2-iminodiacetic acid), ACES (N-(carbamoylmethyl)-2-aminoethanesulfonaic acid), PIPES (piperazine-N,N′-bis(2-ethanesulfonic acid)), MOPSO (3-(N-morpholino)-2-hydroxypropanesulfonic acid), BIS-TRIS PROPANE (1,3-bis(tris(hydroxy-methyl)methylamino)propane), BES (N,N-bis(2-hydroxyethyl)-2-amino-ethanesulfonaic acid), MOPS (3-(N-morpholino)propanesulfonic acid), TES (N-tris(hydroxymethyl)methyl-2-aminoethanesulfonic acid), HEPES (N-(2-hydroxyethyl)piperazine-N′-(2-eth-anesulfonic acid), DIPSO (3-(N,N-bis(2-hydroxyethyl)amino)-2-hydroxypropan-esulfonicacid), MOBS (4-(N-morpholino)butanesulfonic acid), TAPSO (3-(N-tris(hydroxymethyl)methyl-amino)-2-hydroxypropanesulfonic acid), TRIZMA® (tris(hydroxymethyl-aminomethane), HEPPSO(N-(2-hydroxyethyl)piperazine-N′-(2-hydroxy-propanesulfonic acid), POPSO (piperazine-N,N′-bis(2-hydroxypropane-sulfonic acid)), TEA (triethanolamine), EPPS (N-(2-hydroxyethyl)-piperazine-N′-(3-propanesulfonic acid), TRICINE (N-tris(hydroxy-methyl)methylglycine), GLY-GLY (glycylglycine), BICINE (N,N-bis(2-hydroxyethyl)glycine), HEPBS (N-(2-hydroxyethyl)piperazine-N′-(4-butanesulfonic acid)), TAPS(N-tris(hydroxymethyl)methyl-3-amino-propanesulfonic acid), AMPD (2-amino-2-methyl-1,3-propanediol), and/or any other buffers known to those of skill in the art. In one embodiment, the buffer is citric acid/phosphate buffer, acetate buffer, citrate buffer or phosphate buffer. In another embodiment, the buffer is a citrate buffer (citric acid/sodium citrate). […] Buffer concentrations for use herein include from about 0 or 0.01 mM to about 150 mM, or about 1 mM to about 20 mM. In one embodiment, the buffer concentration is about 5 mM. In another embodiment, the buffer concentration is about 1 mM to about 50 mM, or about 20 mM. […] The particular buffer and buffer concentration of a given composition for long term storage provided herein may be determined empirically using standard stability assays well known to those of skill in the art (see, e.g., the Examples).
Ionic strengths of the compositions provided herein are from about 0 to about 0.4, or from about 0.05 to about 0.16. […] The particular ionic strength of a given composition for long term storage provided herein may be determined empirically using standard stability assays well known to those of skill in the art (see, e.g., the Examples).

[2] = Estimated shelf-life of formoterol in the compositions (Arrhenius kinetics); type: physicochemical
[3] = test system: patients with reversible obstructive respiratory diseases; settings: cited from earlier work

COc1ccc(CC(C)NCC(O)c2ccc(O)c(NC=O)c2)cc1 (racemic) [formoterol, 2-hydroxy-5-((1RS)-1-hydroxy-2-(((1RS)-2-(p-methoxyphenyl)-1-methylethyl)amino)ethyl)formanilide]
pH at which decomposition is slowest ([1]; aqueous solution, 60° C., buffer concentration 5 mM, ionic strength 0.05): about 5.0
rate constant (kobs) for decomposition ([1]; aqueous solution, 60° C., pH 3, buffer concentration 5 mM, ionic strength 0.05): approximately 0.62 day^−1
rate constant (kobs) for decomposition ([1]; aqueous solution, 60° C., pH 4, buffer concentration 5 mM, ionic strength 0.05): ~0.11 day⁻¹
rate constant (kobs) for decomposition ([1]; aqueous solution, 60° C., pH 5, buffer concentration 5 mM, ionic strength 0.05): ~0.044 day⁻¹
rate constant (kobs) for decomposition ([1]; aqueous solution, 60° C., pH 7, buffer concentration 5 mM, ionic strength 0.05): ~0.55 day⁻¹
effect of buffer concentration on rate constant of decomposition ([1]; low and approximately neutral pH conditions, buffer concentration 5 mM to 20 mM): increased the rate constant of decomposition significantly
effect of buffer concentration on rate constant of decomposition ([1]; pH region of about 4.5 to about 5.5, buffer concentration 5 mM to 20 mM): no noticeable differences in rate constant were observed
estimated shelf-life ([2]; 5° C.): about 6.2 years
estimated shelf-life ([2]; 25° C.): about 7.5 months
aqueous solubility (pH between about 5 and about 7, ambient temperature): approximately 2.2 mg/mL
aqueous solubility (pH of about 3, ambient temperature): about 4.8 mg/mL
aqueous solubility (pH of about 4, ambient temperature): approximately 3 mg/mL
solubility in pure water (pure water (HPLC water), ambient temperature): approximately 2 mg/mL
duration of bronchodilatory effect [3]: greater than 12 hours
onset of bronchodilatory effect [3]: 1 to 3 min
